From patent US20240246941A1, “SUBSTITUTED 4-(3-AMINOPROP-1-YL)AMINOQUINOLINE ANALOGS AS MODULATORS OF MELANOMA-ASSOCIATED ANTIGEN 11 UBIQUITIN LIGASE” (ST. JUDE CHILDREN'S RESEARCH HOSPITAL, INC., priority 2020, published 2024) come the findings set out here.

The structures appear in SMILES notation.

Sequence of interaction between GST-MAGEA11 MHD and FAM-PCF11_4 peptide (MAGE-A11:PCF11) (P43364 218-429): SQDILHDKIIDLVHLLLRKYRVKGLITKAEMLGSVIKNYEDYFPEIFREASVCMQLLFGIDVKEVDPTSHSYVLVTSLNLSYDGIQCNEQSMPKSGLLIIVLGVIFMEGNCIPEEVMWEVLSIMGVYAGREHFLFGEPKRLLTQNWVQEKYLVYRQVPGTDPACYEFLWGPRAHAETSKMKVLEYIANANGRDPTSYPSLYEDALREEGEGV

For the first test, the target named is interaction between GST-MAGEA11 MHD and FAM-PCF11_4 peptide (MAGE-A11:PCF11) (Homo sapiens (Human), UniProt P43364). The test is described as follows: TR-FRET dose response competition assay for disruption of MAGE-A11:PCF11 binding. The settings on record: Dose response TR-FRET screening of nine scaffold groups against MAGE-A11:PCF11; read-out: consensus IC50. The source says:
TR-FRET Assays and High-throughput Screen. Terbium-anti-GST antibody, 1 M Tris pH 7.5 1 M MgCl2 and 1 M DTT were purchased from Invitrogen (Carlsbad, CA), BSA was purchased from Sigma (St. Louis, MO). Dimethyl sulfoxide (DMSO) was purchased from Fisher Scientific (Pittsburgh, PA). Black 384-well low volume plates and 384-well polypropylene compound plates were purchased from Corning Incorporated (Tewksbury, MA). The St. Jude FDA drug and Bioactive library (11,293 chemicals), Drug-like library (10,073 chemicals) and Lead-like library (10,041 chemicals) were custom assembled and purchased from commercial sources including Sigma, Microsource (Gaylordsville, CT), selleckchem (Houston, TX), ChemDiv (San Diego, CA), ChemBridge (San Diego, CA), Enamine (Monmouth Jct., NJ), and Life Chemicals (Niagara-on-the-Lake, ON, Canada). They were arrayed (10 mM in DMSO) in 384-well polypropylene compound plates with columns 1, 2, 13 and 14 empty which were reserved for controls.
The TR-FRET assay buffer with a formula of 50 mM Tris pH 7.5, 20 mM MgCl2, 0.1 mg/ml BSA and 1 mM DTT was freshly prepared before each experiment. All TR-FRET assays were performed in black 384-well plates with 20 μl/well assay volume in the TR-FRET assay buffer at room temperature (approximately 25° C.). All peptides or compounds were solubilized in DMSO. To test the competitive activity of peptides or compounds against the interaction between GST-MAGEA11 MHD and FAM-PCF11_4 peptide, 10 μl/well peptide or compound at specified concentration was dispensed into a black 384-well low volume plate, followed by 5 μl/well FAM-PCF11_4 (800 nM), 5 μl/well Tb-anti-GST (20 nM) and GST-MAGEA11 MHD (20 nM). The assay components in each well was then mixed by shaking the plate on an IKA MTS 2/4 digital microtiter plate shaker (IKA Works; Wilmington, NC, USA) at 900 RPM for 1 minute. The plate was further centrifuged in an Eppendorf 5810 centrifuge with an A-4-62 swing-bucket rotor (Eppendorf AG, Hamburg, Germany) at 201 g (1000 rpm) for 30 seconds. The plate was then incubated for 90 min with a lid to avoid light exposure to the assay components. After incubation, the fluorescent emission signals at 520 nm and 490 nm channels of individual wells were measured with a PHERAstar FS plate reader (BMG Labtech; Durham, NC, USA) by using a 340 nm excitation filter, 100 μs delay time, and 200 μs integration time. The TR-FRET fluorescence emission ratio (TR-FRET signal) for each well was presented as 10 000×520 nm/490 nm, which was used directly for curve fitting, or further converted to % Inhibition based on the respective positive and negative controls. The graphic software GraphPad Prism 4.81 (GraphPad Software; La Jolla, CA, USA) was used to generate curves and derive IC50 values of tested peptides or compounds, if applicable.
TR-FRET inhibitory activity characterization of a panel of PCF11 peptides against the interaction between GST-MAGEA11 MHD and FAM-PCF11_4 was performed as follows. In a 20 μl/well assay volume, dilutions of PCF11_1 to PCF11_8 peptides (concentrations ranged from 3.1 nM to 100 μM for peptides PCF11_4, PCF11_5, PCF11_6 and PCF11_8 in a 1-to-2 dilution pattern for 16 concentration levels, and ranged from 48.9 nM to 100 μM for peptides of PCF11_1, PCF11_2, PCF11_3 and PCF11_7 in a 1-to-2 dilution pattern for 12 concentration levels), 200 nM FAM-PCF11_4, 5 nM Tb-anti-GST and 5 nM GST-MAGEA11 were mixed together and incubated for 90 min before the TR-FRET signal for each well was measured. The final DMSO concentration was 1.1% (v/v). […] The signal of each peptide-treated well (Signalpeptide) was normalized to the positive and negative controls to derive % inhibition of the peptide at a specific concentration with equation 1. Where applicable, the % Inhibition data were fit into a Sigmoidal dose response equation to derive IC50 values.
TR-FRET screen for identifying MAGEA11 small molecule inhibitors was performed as follows.
Take `COc1ccc(OC)c(Nc2nc(N)c3ccccc3n2)c1` [SJ000202008-1]: the IC50 was found to be 69.9 µM.
Same read-out and setting: for `Cc1ccc(Nc2nc(N)c3ccccc3n2)cc1C` [SJ000202381-1] the value was 69.9 µM; for `CCN1CCN(c2nc(N)c3ccccc3n2)CC1` [SJ000202571-1], 69.9 µM.
The same measure, in the same setting: for `CC(C)c1ccc(-c2nc3c(=O)n(C)c(=O)n(C)c3[nH]2)cc1` [SJ000203904-1] the value was 69.9 µM; for `CCCOc1ccc(-c2nc3c(=O)n(C)c(=O)n(C)c3[nH]2)cc1` [SJ000205042-1], 69.9 µM.
On the same count and under the same terms, for `O=S(=O)(c1ccccc1)c1nc(-c2ccc(Cl)cc2)oc1N1CCOCC1` [SJ000230691-1] the value was 69.9 µM; for `O=S(=O)(c1ccc(Cl)cc1)c1nc(-c2ccc(Cl)cc2)oc1N1CCOCC1` [SJ000230692-1], 69.9 µM; for `Cc1ccc(S(=O)(=O)c2nc(-c3ccc(Cl)cc3)oc2N2CCOCC2)cc1` [SJ000230693-1], 69.9 µM.
For the compound `Cc1ccc(S(=O)(=O)c2nc(-c3ccc(F)cc3)oc2N2CCOCC2)cc1` [SJ000230854-1], the IC50 was 11.7 µM.
The same measure, in the same setting: for `Cc1ccc(S(=O)(=O)c2nc(-c3ccc(Br)cc3)oc2N2CCOCC2)cc1` [SJ000230855-1] the value was 69.9 µM.
As to `Cc1ccc(S(=O)(=O)c2nc(-c3ccccc3Cl)oc2N2CCOCC2)cc1` [SJ000230856-1], the 50% inhibitory concentration (IC50) was 4.34 µM.
Same read-out and setting: the result for `O=C1C(Cl)=C(N2CCOCC2)C(=O)c2ccccc21` [SJ000242799-1] reads 69.9 µM; that for `O=S(=O)(c1ccccc1)c1nc(-c2ccc(Br)cc2)oc1N1CCOCC1` [SJ000244320-1], 8.63 µM; that for `CC(NC1=C(Cl)C(=O)c2ccccc2C1=O)C(=O)O` (centres unmarked) [SJ000244608-1], 69.9 µM.
As for `CC(C)C(NC1=C(Cl)C(=O)c2ccccc2C1=O)C(=O)O` (centres unmarked) [SJ000244609-2], the 50% inhibitory concentration (IC50) stood at 587 µM.
Take `COc1ccc(-c2nc(S(=O)(=O)c3ccc(C)cc3)c(N3CCOCC3)o2)cc1` [SJ000245271-1]: the IC50 came to 69.9 µM.
On the same count and under the same terms, for `CS(=O)(=O)c1ccc(C2=C(c3ccccc3)C(=O)OC2)cc1` [SJ000285362-5] the value was 67.6 µM; for `COc1cc2nc(N(C)CCCNC(=O)C3CCCO3)nc(N)c2cc1OC` (centres unmarked) [SJ000286094-9], 36.2 µM.
With `C=CCn1c(=O)c2c(nc(-c3ccc(S(=O)(=O)O)cc3)n2C)n(C)c1=O` [SJ000287614-4], the IC50 was 75.1 µM.
As for `Cn1c(=O)c2nc(-c3ccc(S(=O)(=O)O)cc3)[nH]c2n(C)c1=O` [SJ000287642-4], the IC50 is 21.8 µM.
As to `CCCn1c(=O)c2nc(-c3ccc(S(=O)(=O)O)cc3)[nH]c2n(CCC)c1=O` [SJ000287650-2], the IC50 is 69.9 µM.
Same read-out and setting: for `CCCn1c(=O)c2nc(-c3ccc(OCC(=O)Nc4ccc(C#N)cc4)cc3)[nH]c2n(CCC)c1=O` [SJ000287997-2] the value was 69.9 µM; for `Cn1c(=O)c2nc(-c3ccccc3)[nH]c2n(C)c1=O` [SJ000288094-2], 69.9 µM.
Still for that read-out and setting: the result for `COc1cc2nc(N3CCN(C(=O)OCc4ccccc4)C(C(=O)NC(C)(C)C)C3)nc(N)c2cc1OC` (centres unmarked) [SJ000288233-2] reads 69.9 µM; that for `CCCn1c(=O)c2nc(-c3ccc(OCC(=O)NCCN)cc3)[nH]c2n(CCC)c1=O` [SJ000288288-2], 69.9 µM.
Still for that read-out and setting: the result for `Cn1c2ccccc2c2cc(C3Nc4ccccc4C(=O)N3Cc3ccccc3)ccc21` (centres unmarked) [SJ000288408-1] reads 69.9 µM; that for `CCCN1C(=O)c2ccccc2NC1c1cccc(F)c1` (centres unmarked) [SJ000288416-1], 69.9 µM.
As for `COc1ccc(C2Nc3ccccc3C(=O)N2Cc2ccccc2)cc1Cn1nc(C)c([N+](=O)[O-])c1C` (centres unmarked) [SJ000288419-1], the IC50 turned out to be 69.9 µM.
`CCCN1C(=O)c2ccccc2NC1c1ccc(C)cc1` (centres unmarked) [SJ000288423-2]: the IC50 worked out at 69.9 µM.
Still for that read-out and setting: for `CCCN1C(=O)c2ccccc2NC1c1ccc(Cl)cc1Cl` (centres unmarked) [SJ000288424-2] the value was 69.9 µM; for `CCCN1C(=O)c2ccccc2NC1c1ccc(OC)c(COc2ccc([N+](=O)[O-])cc2)c1` (centres unmarked) [SJ000288430-1], 69.9 µM.
Take `CCOc1cc(C2Nc3ccccc3C(=O)N2Cc2ccccc2)ccc1O` (centres unmarked) [SJ000288432-1]: the IC50 stood at 69.9 µM.
With `COc1ccc(C2Nc3ccccc3C(=O)N2Cc2ccccc2)cc1Cn1cc([N+](=O)[O-])cn1` (centres unmarked) [SJ000288433-1], the IC50 amounted to 69.9 µM.
Same read-out and setting: for `CCCN1C(=O)c2ccccc2NC1c1ccc(OC)c(CSc2ccccn2)c1` (centres unmarked) [SJ000288444-1] the value was 69.9 µM; for `CCCN1C(=O)c2ccccc2NC1c1ccccc1F` (centres unmarked) [SJ000288611-1], 69.9 µM; for `O=C1c2ccccc2NC(c2ccc3c(c2)OCO3)N1Cc1ccccc1` (centres unmarked) [SJ000288627-1], 69.9 µM.
Still for that read-out and setting: the result for `COc1ccc(C2Nc3ccccc3C(=O)N2Cc2ccccc2)cc1Cn1nc(C)c(Cl)c1C` (centres unmarked) [SJ000288637-1] reads 69.9 µM.
For `CCCN1C(=O)c2ccccc2NC1c1ccc2c(c1)OCO2` (centres unmarked) [SJ000288667-1], the IC50 was found to be 69.9 µM.
Regarding `CC(=O)N(C)C1=C(Cl)C(=O)c2ccccc2C1=O` [SJ000290718-2], the IC50 came to 69.9 µM.
Consider `NC1=C(N2CCCCC2)C(=O)c2ccccc2C1=O` [SJ000294373-2], for which the half-inhibitory concentration (IC50) worked out at 20.1 µM.
On the same count and under the same terms, the result for `CCCN1C(=O)c2ccccc2NC1c1c(Cl)cccc1Cl` (centres unmarked) [SJ000295321-1] reads 69.9 µM; that for `COc1ccc(C2Nc3ccccc3C(=O)N2Cc2ccccc2)cc1COc1ccccc1F` (centres unmarked) [SJ000295328-2], 69.9 µM.
On the same count and under the same terms, for `COc1ccc(C2Nc3ccccc3C(=O)N2Cc2ccccc2)cc1CN1C(=O)c2ccccc2C1=O` (centres unmarked) [SJ000295698-1] the value was 69.9 µM; for `COc1cccc(OCc2cc(C3Nc4ccccc4C(=O)N3Cc3ccccc3)ccc2OC)c1` (centres unmarked) [SJ000295704-1], 69.9 µM.
In the case of `CCCN1C(=O)c2ccccc2NC1c1ccc(O)c(OC)c1` (centres unmarked) [SJ000295722-1], the IC50 was found to be 69.9 µM.
The same measure, in the same setting: for `CCCN1C(=O)c2ccccc2NC1c1ccc(OC)c(COc2ccccc2F)c1` (centres unmarked) [SJ000295736-1] the value was 69.9 µM; for `CCCN1C(=O)c2ccccc2NC1c1ccc(OC)c(COc2ccc([N+](=O)[O-])c(C)c2)c1` (centres unmarked) [SJ000295745-1], 69.9 µM.
In the case of `CCCN1C(=O)c2ccccc2NC1c1ccc(Cl)c(Cl)c1` (centres unmarked) [SJ000296071-1], the IC50 came out at 69.9 µM.
The same measure, in the same setting: the result for `Cc1nc2cc(-c3ccccc3)sc2c(=O)n1N` [SJ000296471-1] reads 69.9 µM.
In the case of `COc1ccc(-c2cc3nc[nH]c(=O)c3s2)cc1` [SJ000296726-1], the IC50 turned out to be 69.9 µM.
For the compound `CC(=O)N(C1=C(Cl)C(=O)c2ccccc2C1=O)c1ccc(Cl)cc1` [SJ000296883-2], the IC50 amounted to 69.9 µM.

The same test, now with this note: Table 8, representative compounds; read-out: TR-FRET IC50.
Take `COc1ccc(OC)c2c(O)c(CN3CCCCC3C)c(C)nc12` (centres unmarked) [SJ000280708]: the IC50 is more than 69.9 µM.
Regarding `COc1ccc(OC)c2c(O)cc(C)nc12` [SJ000284975], the IC50 is more than 69.9 µM.
Same read-out and setting: for `CC[C@@]1(O)C(=O)OCc2c1cc1n(c2=O)Cc2cc3ccccc3nc2-1` [SJ000285410] the value was more than 55.2 µM; for `Nc1c2ccccc2nc2ccccc12` [SJ000285450], more than 75.5 µM.
On the same count and under the same terms, the result for `COc1cc(NC(C)CCCN)c2ncccc2c1` (centres unmarked) [SJ000285544] reads 19 µM.
